Assay results: patent US11408886B2, “Method of screening for novel therapeutic targets to develop therapeutic agents for colon cancer and prognostic biomarkers for colon cancer treatment screened using the same” (KOREA INSTITUTE OF SCIENCE AND TECHNOLOGY, priority 2018, dated 2022)

Legend:
[1] = test system: colon cancer cells; experiment: Protein expression level changes after treatment with FAK inhibitors (in-solution digestion, protein identification, expression ratios, FIG. 14); assay type: cell-based, human; set-up: dose or concentration left out as unconfirmed; conditions: 2 hours (FIG. 14)
Procedure: A human colon cancer cell line, HCT-116, was cultured using an RPMI-1640 medium containing 10% (v/v) heat-inactivated FBS and 1% (v/v) penicillin/streptomycin in a 60 mm plastic culture plate (Corning Life Science, Acton, Mass., USA) until its cell density reached 2×10^6 cells/cm^2. The culture was performed in a humidified incubator of 5% CO2 at 37° C. The cells were starved for 24 hours and washed with serum-free medium. FGF signaling was amplified by adding 10 ng/mL of EGF, IGF, PMA, and PDGF, followed by further incubation for 2 hours. Thereafter, the cells were harvested and collected by centrifugation at a speed of 300 g for 5 minutes. Cell membranes were disrupted using a sonicator, and centrifuged at a speed of 13,000 g for 30 minutes to collect lysed intracellular proteins. Further, to compare the amounts of expressed FAK-binding proteins by using defactinib (VS-6063) and PF-573228, which are FAK inhibitors, independently or simultaneously, normal intestinal epidermal cells and colon cancer cells were each treated with FAK inhibitors at three different final concentrations […], 1 mM, and 10 mM (2 hours), and then cells were collected and subjected to in-solution digestion to isolate and identify the proteins.

[2] = test system: colon cancer cell line HCT-116; experiment: Western blotting / immunoprecipitation of FAK and FAK-bound protein complexes after treatment with FAK signaling substances; assay type: cell-based, human; conditions: HCT-116, 10 ng/mL, 2 hours, compared with control group not treated with the signaling substances (FIG. 7)
Procedure: A human colon cancer cell line, HCT-116, was cultured using an RPMI-1640 medium containing 10% (v/v) heat-inactivated FBS and 1% (v/v) penicillin/streptomycin in a 60 mm plastic culture plate (Corning Life Science, Acton, Mass., USA) until its cell density reached 2×10^6 cells/cm^2. The culture was performed in a humidified incubator of 5% CO2 at 37° C. The cells were starved for 24 hours and washed with serum-free medium. FGF signaling was amplified by adding 10 ng/mL of EGF, IGF, PMA, and PDGF, followed by further incubation for 2 hours. Thereafter, the cells were harvested and collected by centrifugation at a speed of 300 g for 5 minutes. Cell membranes were disrupted using a sonicator, and centrifuged at a speed of 13,000 g for 30 minutes to collect lysed intracellular proteins. Further, to compare the amounts of expressed FAK-binding proteins by using defactinib (VS-6063) and PF-573228, which are FAK inhibitors, independently or simultaneously, normal intestinal epidermal cells and colon cancer cells were each treated with FAK inhibitors at three different final concentrations of 0.1 mM, 1 mM, and 10 mM (2 hours), and then cells were collected and subjected to in-solution digestion to isolate and identify the proteins.
The concentrations of the collected proteins were determined using a bicinchoninic acid (BCA) protein assay kit (Thermo Fisher Scientific, Waltham, Mass., USA), and the remaining samples were separated by 10% SDS-PAGE (sodium dodecyl sulfate-polyacrylamide gel electrophoresis), and transferred to a nitrocellulose membrane (Pall Corporation, Pensacola, Fla., USA) to perform Western blotting. The membrane was blocked with PBS containing 0.2% TWEEN 20 and 5% non-fat dry milk for about 2 hours, and blotting was performed using anti-phospho-FAK (1:1000) antibody and anti-β-actin (1:5000) antibody overnight. HRP-conjugated goat anti-rabbit IgG diluted 1:5000 was used as a secondary antibody, and fluorescence images were scanned using an Ez-capture MG (ATTO, NY, USA) instrument. For IP, 1.5 mg of the cell lysate was prepared and incubated overnight with 20 μL of agarose beads preblocked (at 4° C. for 2 hours) with PBS containing 1% bovine serum albumin (BSA), wherein 10 μL of FAK antibody (1:500) was immobilized to the agarose beads. To remove nonspecific binding, the beads were washed with 600 μL of PBS containing 0.1% TWEEN 20 twice, and FAK protein and proteins bound thereto were crosslinked using 2 mM of dithiobis(succinimidyl propionate) (DSP) and dithiobismaleimidoethane (DTME). The crosslinking agents were dissolved in 20 mM DMSO and diluted with PBS (pH 7.4), and then used in the reaction. Washing was performed five times using 600 μL of a 0.1% solution of PBS-Tween 20 and further performed using PBS twice. […]

Compound | complexes of the FAK protein and the proteins specifically bound thereto [2] | other results
CS(=O)(=O)c1cccc(CNc2nc(Nc3ccc4c(c3)CCC(=O)N4)ncc2C(F)(F)F)c1 [PF-573228] |  | ELAVL1 expression level [1]: statistically significant reduction; SYNE1 expression level [1]: statistically significant reduction; ZYX expression level [1]: statistically significant reduction; ARFGEF expression level ([1]; reduction only with PF-573228): significant reduction
CCCCCCCCCCCCCC(=O)O[C@@H]1[C@@H](C)[C@@]2(O)[C@@H](C=C(CO)C[C@]3(O)C(=O)C(C)=C[C@@H]23)[C@@H]2C(C)(C)[C@]12OC(C)=O [PMA, phorbol 12-myristate 13-acetate] | increased two-fold or more | 
PDGF | increased two-fold or more | 
hEGF: human epidermal growth factor, FAK signaling substance | increased two-fold or more | 
hIGF-1: human insulin-like growth factor-1, FAK signaling substance | increased two-fold or more | 
